# Results from ChEMBL document CHEMBL1201862, “PubChem BioAssay data set” (2004).
# The source made the active and inactive calls.
# Legend:
# [1] = Trypanosoma cruzi growth suppression in host cells – NIH3T3 host cells, beta-gal luminescence, confirmation (AID 2044); format: functional, cell-based;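 further: intracellular parasites grown in NIH/3T3 mouse fibroblasts as host cells; luminescent beta-galactosidase reporter signal from transgenic T. cruzi replicating inside host cells; inhibitors lower the luminescence signal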
# NADPH oxidase 1 [2] = target: T1, NADPH oxidase 1 (Homo sapiens, UniProt Q9Y5S8); format: functional, cell-based
# T1 sequence (Q9Y5S8 whole entry): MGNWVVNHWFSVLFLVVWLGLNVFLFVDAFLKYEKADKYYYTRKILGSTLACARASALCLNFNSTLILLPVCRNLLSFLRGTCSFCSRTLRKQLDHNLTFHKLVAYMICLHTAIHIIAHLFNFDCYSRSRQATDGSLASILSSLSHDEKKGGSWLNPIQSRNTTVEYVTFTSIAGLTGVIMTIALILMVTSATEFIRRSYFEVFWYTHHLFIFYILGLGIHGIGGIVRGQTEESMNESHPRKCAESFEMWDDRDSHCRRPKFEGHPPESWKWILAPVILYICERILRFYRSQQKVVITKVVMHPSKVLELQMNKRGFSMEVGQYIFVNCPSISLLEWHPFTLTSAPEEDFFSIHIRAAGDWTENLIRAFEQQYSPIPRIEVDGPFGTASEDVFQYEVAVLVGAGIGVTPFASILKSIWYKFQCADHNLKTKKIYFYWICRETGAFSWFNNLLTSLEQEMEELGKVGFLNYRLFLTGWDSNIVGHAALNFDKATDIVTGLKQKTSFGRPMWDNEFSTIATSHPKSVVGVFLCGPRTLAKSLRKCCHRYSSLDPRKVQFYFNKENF
# NADPH oxidase 1 [3] = target: T1, NADPH oxidase 1; assay: Luminescence-based cell-based dose response assay to identify inhibitors of NADPH oxidase 1 (NOX1).; format: functional
# [4] = NIH3T3 cell viability loss – ATP luminescence, mouse fibroblasts, counter-screen, dose response (AID 2010); format: functional, cell-based;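 further: cells exposed to compound for about 90 hours before reading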
# [5] = target: T2, Rac GTPase-activating protein 1 (Homo sapiens, UniProt Q9H0H5); assay: blockers of MgcRacGAP-driven Rac1 GTP hydrolysis – biochemical, ADP Hunter fluorescence, primary and confirmatory, confirmation (AID 624330); format: functional
# T2 sequence (Q9H0H5 whole entry): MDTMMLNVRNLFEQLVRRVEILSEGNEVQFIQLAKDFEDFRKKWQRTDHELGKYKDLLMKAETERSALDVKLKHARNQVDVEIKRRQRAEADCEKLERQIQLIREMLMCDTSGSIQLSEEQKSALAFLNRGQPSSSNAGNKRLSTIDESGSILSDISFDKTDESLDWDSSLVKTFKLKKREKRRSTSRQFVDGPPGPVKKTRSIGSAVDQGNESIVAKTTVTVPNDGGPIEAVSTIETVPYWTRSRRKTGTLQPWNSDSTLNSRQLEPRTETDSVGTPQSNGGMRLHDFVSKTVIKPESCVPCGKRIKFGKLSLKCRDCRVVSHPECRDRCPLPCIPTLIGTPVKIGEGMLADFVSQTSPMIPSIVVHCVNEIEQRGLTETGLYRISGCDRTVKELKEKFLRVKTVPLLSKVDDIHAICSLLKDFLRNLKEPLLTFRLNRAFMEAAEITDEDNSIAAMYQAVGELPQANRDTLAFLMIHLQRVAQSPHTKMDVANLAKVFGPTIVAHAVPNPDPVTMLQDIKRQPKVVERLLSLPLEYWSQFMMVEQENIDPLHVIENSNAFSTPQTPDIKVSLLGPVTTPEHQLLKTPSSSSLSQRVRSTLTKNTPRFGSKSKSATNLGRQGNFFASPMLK
# [6] = target: Potassium voltage-gated channel subfamily KQT member 2 (Rattus norvegicus, UniProt O88943); assay: Mode of action assay - current amplitude concentration response for derivatives of ZTZ240, a potentiator of KCNQ2 potassium channels. [Related pubchem assays: 2258 (Summary assay for the KCNQ2 potentiators.), 2239 (Primary HTS assay for KCNQ2 potentiators with 305606 compounds tested, and 1644 are found to be active.)]; format: functional
# [7] = viability of uninfected HEp-2 cells – cell-based, HTS, cytotoxicity control for RSV inhibitor project, dose response (AID 2410); format: functional; settings: human respiratory syncytial virus
# [8] = target: T3, Mannose-6-phosphate isomerase (Homo sapiens, UniProt P34949); assay: MPI enzyme activity inhibition – biochemical, fluorescence intensity, coupled assay, primary screen (AID 1209)
# T3 sequence (P34949 whole entry): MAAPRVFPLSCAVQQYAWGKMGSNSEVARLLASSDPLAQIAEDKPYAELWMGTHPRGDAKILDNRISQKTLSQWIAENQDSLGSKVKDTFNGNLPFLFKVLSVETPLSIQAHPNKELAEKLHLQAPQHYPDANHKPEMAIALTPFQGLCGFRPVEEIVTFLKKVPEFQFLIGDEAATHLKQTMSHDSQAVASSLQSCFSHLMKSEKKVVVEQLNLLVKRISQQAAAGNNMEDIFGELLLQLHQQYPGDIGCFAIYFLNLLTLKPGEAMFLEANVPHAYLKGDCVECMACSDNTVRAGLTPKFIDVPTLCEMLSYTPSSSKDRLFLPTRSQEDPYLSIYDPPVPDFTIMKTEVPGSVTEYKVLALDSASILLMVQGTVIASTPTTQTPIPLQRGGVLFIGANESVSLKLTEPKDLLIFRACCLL
# [9] = Luminescence-based dose response cell-based high throughput screening assay for cytotoxic compounds using the IEC-6 intestinal epithelial cell line. [Related pubchem assays: 1858 (Summary AID.), 1825 (Counterscreen.), 1907 (Confirmation screen.)]; format: functional
# [10] = target: T3, Mannose-6-phosphate isomerase; assay: MPI inhibition at elevated mannose 6-phosphate – biochemical, fluorescence intensity, high mannose 6-phosphate, primary screen (AID 1220)
# [11] = target: Photoreceptor-specific nuclear receptor (Homo sapiens, UniProt Q9Y5X4); format: functional, cell-based;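 further: CHO-S cells with Gal4-NCOR and VP16-NR2E3 two-hybrid luciferase reporter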
# SUMO-activating enzyme = SUMO-activating enzyme (Homo sapiens, UniProt Q9UBT2); assay: blockers of UBC9-mediated SUMO conjugation – biochemical, AlphaScreen, SUMOylation inhibitor project, confirmation (AID 2018); format: functional
# SUMO-activating enzyme, sequence (Q9UBE0 whole entry): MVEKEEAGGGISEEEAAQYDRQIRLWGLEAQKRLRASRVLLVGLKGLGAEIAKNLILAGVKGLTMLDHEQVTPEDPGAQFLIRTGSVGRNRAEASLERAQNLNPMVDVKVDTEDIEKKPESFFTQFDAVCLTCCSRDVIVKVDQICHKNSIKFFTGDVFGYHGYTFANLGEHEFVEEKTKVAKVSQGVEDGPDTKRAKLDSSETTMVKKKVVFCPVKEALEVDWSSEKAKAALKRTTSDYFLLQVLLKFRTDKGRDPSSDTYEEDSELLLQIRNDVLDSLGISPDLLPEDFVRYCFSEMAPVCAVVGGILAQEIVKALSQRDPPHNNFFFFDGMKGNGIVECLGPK
# SUMO-activating enzyme, sequence (Q9UBT2 whole entry): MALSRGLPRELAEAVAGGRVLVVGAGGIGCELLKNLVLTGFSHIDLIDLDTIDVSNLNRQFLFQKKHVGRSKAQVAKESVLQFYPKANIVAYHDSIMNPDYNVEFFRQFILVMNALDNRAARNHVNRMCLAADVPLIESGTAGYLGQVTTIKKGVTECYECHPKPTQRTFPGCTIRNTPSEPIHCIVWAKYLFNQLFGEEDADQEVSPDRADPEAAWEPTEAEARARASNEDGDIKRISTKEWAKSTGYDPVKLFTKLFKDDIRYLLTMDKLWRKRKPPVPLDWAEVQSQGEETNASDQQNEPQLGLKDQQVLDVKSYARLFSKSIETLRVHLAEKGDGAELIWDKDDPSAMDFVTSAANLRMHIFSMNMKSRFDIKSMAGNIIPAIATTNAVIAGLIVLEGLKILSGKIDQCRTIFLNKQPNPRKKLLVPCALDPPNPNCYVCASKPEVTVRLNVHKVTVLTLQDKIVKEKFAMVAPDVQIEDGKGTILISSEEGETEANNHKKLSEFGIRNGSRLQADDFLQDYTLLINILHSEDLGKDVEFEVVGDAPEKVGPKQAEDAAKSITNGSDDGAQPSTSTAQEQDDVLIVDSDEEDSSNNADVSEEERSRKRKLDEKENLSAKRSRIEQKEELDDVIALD
# [12] = target: ATP-sensitive inward rectifier potassium channel 1 (Homo sapiens, UniProt P48048); assay: Kir1.1 channel inhibitor analog potency – cell-based, thallium flux, analog library, SAR follow-up (AID 435017); format: functional
# ATP-sensitive inward rectifier potassium channel 1, sequence (P48048 whole entry): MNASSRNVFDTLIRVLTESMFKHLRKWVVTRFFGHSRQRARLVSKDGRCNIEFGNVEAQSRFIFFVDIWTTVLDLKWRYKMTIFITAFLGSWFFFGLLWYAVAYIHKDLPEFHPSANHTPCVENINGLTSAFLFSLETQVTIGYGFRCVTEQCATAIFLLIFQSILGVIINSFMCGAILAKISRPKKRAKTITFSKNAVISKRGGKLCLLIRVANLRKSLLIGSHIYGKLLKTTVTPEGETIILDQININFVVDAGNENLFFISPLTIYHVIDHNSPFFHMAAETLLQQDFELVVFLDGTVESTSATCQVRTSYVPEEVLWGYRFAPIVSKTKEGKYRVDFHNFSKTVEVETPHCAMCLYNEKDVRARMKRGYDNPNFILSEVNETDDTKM
# Estrogen receptor = target: T4, Estrogen receptor (Homo sapiens, UniProt P03372); assay: blockers of SRC-3 recruitment to ERα – biochemical, ELISA, streptavidin-HRP readout, orthogonal assay, confirmation (AID 1079)
# T4 sequence (P03372 whole entry): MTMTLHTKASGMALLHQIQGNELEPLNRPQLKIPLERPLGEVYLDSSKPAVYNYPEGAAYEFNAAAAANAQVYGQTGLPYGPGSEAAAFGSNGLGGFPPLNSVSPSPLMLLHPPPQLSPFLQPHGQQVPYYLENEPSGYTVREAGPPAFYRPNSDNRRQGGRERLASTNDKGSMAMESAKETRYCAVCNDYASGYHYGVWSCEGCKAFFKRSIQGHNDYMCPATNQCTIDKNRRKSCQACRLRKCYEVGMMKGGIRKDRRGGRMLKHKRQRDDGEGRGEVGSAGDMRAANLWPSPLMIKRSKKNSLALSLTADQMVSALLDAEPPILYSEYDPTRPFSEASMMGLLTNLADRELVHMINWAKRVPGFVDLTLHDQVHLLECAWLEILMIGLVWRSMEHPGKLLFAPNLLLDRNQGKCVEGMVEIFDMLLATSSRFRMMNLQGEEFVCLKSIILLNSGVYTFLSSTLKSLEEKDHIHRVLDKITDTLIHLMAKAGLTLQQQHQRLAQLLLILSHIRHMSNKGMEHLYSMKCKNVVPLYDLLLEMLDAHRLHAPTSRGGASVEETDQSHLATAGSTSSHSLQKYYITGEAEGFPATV
# [13] = target: Neuropeptide Y receptor type 1 (Homo sapiens, UniProt P25929); format: functional;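 further: HEK293 cells with a CNG channel challenged with NPY then isoproterenol; potency as antagonist that reverses NPY suppression of cAMP signal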
# Neuropeptide Y receptor type 1, sequence (P25929 whole entry): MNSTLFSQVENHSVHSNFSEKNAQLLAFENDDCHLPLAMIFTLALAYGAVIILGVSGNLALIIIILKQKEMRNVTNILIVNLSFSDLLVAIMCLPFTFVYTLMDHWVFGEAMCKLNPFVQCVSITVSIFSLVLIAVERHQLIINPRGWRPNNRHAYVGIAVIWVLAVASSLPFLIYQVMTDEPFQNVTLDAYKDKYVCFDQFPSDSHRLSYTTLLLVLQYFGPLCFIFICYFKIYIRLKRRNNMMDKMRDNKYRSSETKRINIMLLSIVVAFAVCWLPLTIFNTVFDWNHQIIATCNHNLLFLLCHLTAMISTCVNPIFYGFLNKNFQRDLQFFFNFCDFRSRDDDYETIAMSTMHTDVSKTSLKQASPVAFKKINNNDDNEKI
# [14] = target: Neuropeptide Y receptor type 2 (Homo sapiens, UniProt P49146); format: functional, cell-based;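 further: HEK293 cells expressing the receptor and a CNG channel; stimulus was NPY near EC95 followed by isoproterenol to raise cAMP; antagonist potency measured as restoring cAMP signal that NPY suppresses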
# Mucolipin-3 = Mucolipin-3 (Homo sapiens, UniProt Q8TDD5); assay: Dose response cell-based high-throughput screening assay for agonists of the transient receptor potential channel ML3 (TRPML3). [Related pubchem assays: 1526, 1424, 1448 ]; format: functional
# Mucolipin-3, sequence (Q8TDD5 whole entry): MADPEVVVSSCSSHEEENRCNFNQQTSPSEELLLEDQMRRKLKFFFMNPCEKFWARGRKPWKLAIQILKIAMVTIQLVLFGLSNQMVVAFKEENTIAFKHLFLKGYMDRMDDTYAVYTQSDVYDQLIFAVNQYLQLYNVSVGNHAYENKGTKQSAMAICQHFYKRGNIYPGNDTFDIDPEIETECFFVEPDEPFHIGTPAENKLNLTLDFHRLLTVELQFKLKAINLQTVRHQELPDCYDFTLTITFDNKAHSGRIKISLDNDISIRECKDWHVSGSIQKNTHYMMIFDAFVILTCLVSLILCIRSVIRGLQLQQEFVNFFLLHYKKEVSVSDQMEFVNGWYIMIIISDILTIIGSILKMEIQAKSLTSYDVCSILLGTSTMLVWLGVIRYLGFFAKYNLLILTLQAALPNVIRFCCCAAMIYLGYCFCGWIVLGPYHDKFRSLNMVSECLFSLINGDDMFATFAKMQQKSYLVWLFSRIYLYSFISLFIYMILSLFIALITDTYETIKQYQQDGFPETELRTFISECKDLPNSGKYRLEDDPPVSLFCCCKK
# Ion channel NompC = Ion channel NompC (Danio rerio, UniProt Q7T1G6); assay: Fluorescence counterscreen assay for TRPML3 agonists: dose response cell-based high-throughput screening assay to identify agonists of the transient receptor potential channel N1 (TRPN1). [Related pubchem assays: 1526, 1424, 1448 ]; format: functional
# [15] = target: T5, Long-chain-fatty-acid--AMP ligase FadD28 (Mycobacterium tuberculosis, UniProt P9WQ59); assay: Fluorescence polarization aasay to screen for inhibitors that compete for the binding of FadD28 to a bisubstrate Measured in Biochemical System Using Plate Reader - 2147-01_Inhibitor_Dose_CherryPick_Activity.; format: functional, Mycobacterium tuberculosis H37Rv
# T5 sequence (P9WQ59 whole entry): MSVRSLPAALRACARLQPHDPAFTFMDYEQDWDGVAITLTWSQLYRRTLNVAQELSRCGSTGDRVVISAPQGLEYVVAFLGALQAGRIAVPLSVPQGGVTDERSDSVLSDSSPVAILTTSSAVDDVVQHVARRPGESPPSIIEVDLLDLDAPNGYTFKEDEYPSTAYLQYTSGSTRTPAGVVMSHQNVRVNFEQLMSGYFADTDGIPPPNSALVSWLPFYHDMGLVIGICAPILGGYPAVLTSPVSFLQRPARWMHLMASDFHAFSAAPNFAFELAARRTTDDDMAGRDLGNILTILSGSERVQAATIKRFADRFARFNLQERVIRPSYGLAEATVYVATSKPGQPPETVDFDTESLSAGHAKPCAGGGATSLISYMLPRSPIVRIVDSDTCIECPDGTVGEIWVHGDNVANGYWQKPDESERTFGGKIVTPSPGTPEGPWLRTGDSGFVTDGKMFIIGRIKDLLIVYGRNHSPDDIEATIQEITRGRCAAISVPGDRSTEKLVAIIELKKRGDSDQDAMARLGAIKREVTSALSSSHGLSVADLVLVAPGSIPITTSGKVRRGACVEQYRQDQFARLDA
# [16] = target: T6, RNA-binding protein pos-1 (Caenorhabditis elegans, UniProt G5EF15); assay: disruptors of C. elegans POS-1 RNA interaction – biochemical, fluorescence polarization, dose response (AID 1964);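 further: purified POS-1 fused to maltose binding protein made in E. coli; potency of compounds blocking POS-1 binding to fluorescent RNA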
# T6 sequence (G5EF15 whole entry): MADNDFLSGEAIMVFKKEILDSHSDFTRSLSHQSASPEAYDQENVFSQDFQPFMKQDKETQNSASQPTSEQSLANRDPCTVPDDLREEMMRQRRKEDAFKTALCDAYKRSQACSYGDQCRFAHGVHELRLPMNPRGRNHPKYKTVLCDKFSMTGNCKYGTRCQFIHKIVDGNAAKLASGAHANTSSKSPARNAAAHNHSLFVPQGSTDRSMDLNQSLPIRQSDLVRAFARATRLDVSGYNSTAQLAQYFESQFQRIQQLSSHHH
# [17] = target: T7, Zinc finger protein mex-5 (Caenorhabditis elegans, UniProt Q9XUB2); assay: potency of MEX-5 RNA-binding blockers – biochemical, C. elegans, fluorescence polarization, dose response (AID 1960)
# T7 sequence (Q9XUB2 whole entry): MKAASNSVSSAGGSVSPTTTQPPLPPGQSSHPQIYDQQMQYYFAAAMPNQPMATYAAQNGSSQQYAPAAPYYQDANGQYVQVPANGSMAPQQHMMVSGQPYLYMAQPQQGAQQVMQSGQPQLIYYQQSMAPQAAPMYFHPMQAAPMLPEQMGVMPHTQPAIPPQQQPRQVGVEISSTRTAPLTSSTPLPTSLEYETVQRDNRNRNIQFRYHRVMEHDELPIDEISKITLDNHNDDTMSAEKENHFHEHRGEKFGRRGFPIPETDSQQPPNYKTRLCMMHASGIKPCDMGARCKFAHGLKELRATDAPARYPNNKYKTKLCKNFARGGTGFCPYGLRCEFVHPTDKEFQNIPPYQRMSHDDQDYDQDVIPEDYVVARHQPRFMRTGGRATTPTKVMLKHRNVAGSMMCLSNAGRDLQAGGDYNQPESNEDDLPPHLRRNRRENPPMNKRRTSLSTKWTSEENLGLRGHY
# NS3 = NS3 (Hepatitis C virus, UniProt A3EZJ3); assay: PubChem AID 2173; parameters: species or system Hepacivirus hominis
# NS3, sequence (A3EZJ3 whole entry): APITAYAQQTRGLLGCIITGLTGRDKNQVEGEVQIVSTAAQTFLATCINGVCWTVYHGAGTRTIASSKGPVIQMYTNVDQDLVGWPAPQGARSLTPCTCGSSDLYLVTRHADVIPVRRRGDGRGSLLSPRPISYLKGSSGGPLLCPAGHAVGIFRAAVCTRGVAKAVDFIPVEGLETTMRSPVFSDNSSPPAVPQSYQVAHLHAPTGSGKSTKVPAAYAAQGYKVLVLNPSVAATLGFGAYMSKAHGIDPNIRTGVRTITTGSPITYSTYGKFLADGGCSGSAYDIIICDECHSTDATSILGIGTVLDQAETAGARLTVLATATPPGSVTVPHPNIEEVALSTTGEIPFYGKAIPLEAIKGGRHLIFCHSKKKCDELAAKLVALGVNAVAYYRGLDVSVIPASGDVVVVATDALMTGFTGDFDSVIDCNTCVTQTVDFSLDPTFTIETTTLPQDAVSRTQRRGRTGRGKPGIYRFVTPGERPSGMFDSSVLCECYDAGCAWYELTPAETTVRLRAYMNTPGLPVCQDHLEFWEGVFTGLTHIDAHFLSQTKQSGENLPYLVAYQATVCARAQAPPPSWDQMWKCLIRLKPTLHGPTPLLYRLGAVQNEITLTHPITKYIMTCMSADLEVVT
# [18] = target: 5-hydroxytryptamine receptor 1E (Homo sapiens, UniProt P28566); assay: Counterscreen assay for S1P3 antagonists: Dose response cell-based high throughput screening assay to identify antagonists of the 5-Hydroxytryptamine Receptor Subtype 1E (5HT1E). [Related pubchem assays: 1429, 485 ]; format: functional
# 5-hydroxytryptamine receptor 1E, sequence (P28566 whole entry): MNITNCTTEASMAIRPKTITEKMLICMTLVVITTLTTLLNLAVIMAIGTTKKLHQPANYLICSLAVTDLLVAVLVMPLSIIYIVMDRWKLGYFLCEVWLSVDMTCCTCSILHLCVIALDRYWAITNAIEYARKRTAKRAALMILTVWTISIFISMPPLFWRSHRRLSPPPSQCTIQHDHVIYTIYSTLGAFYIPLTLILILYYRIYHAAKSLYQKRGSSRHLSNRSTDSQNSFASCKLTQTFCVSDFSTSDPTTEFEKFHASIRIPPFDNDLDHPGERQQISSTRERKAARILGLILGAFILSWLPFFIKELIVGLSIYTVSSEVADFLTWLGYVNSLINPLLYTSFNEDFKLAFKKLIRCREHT
# [19] = target: Sphingosine 1-phosphate receptor 3 (Homo sapiens, UniProt Q99500); assay: Dose response cell-based high throughput screening assay for antagonists of the Sphingosine 1-Phosphate Receptor 3 (S1P3). [Related pubchem assays: 1429, 485 ]; format: functional
# [20] = target: Disintegrin and metalloproteinase domain-containing protein 17 (Homo sapiens, UniProt P78536); assay: exosite inhibitors of ADAM17, dose response, biochemical (AID 743260)
# [21] = inhibition of ADAM10 peptide cleavage – biochemical, FRET peptide substrate, recombinant human ADAM10, selectivity assay for ADAM17 exosite inhibitor project, dose response (AID 743259);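 further: ADAM10 enzyme cleaving a FRET peptide substrate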
# [22] = target: Luciferin 4-monooxygenase (Photinus pyralis, UniProt P08659); assay: Counter Screen for Luciferase-based Assay Positives. [Related pubchem assays: 620, 618, 411 ]
# Luciferin 4-monooxygenase, sequence (P08659 whole entry): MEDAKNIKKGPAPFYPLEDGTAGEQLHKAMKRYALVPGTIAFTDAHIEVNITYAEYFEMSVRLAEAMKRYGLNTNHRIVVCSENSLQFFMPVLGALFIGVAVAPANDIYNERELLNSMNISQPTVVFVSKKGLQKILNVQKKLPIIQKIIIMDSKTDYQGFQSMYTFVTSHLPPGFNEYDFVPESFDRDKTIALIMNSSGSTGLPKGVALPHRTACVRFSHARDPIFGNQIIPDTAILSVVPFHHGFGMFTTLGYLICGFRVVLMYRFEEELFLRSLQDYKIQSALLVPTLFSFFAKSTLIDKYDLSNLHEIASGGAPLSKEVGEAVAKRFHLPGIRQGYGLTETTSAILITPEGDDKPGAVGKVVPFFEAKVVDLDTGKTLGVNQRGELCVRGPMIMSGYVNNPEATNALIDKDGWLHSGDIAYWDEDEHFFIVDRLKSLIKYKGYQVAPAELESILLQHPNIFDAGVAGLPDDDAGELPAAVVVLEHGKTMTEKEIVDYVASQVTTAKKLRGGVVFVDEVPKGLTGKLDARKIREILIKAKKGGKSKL
# HT-1080 = assay: HT1080 cell viability loss – fluorescence readout (AID 620); format: functional, cell-based; settings: Homo sapiens
# Cytochrome P450 2D6 = Cytochrome P450 2D6 (Homo sapiens, UniProt P10635);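 further: CYP2D6 member of a cytochrome P450 panel assay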
# Cytochrome P450 2C9 = Cytochrome P450 2C9 (Homo sapiens, UniProt P11712)
# Cytochrome P450 2C9, sequence (P11712 whole entry): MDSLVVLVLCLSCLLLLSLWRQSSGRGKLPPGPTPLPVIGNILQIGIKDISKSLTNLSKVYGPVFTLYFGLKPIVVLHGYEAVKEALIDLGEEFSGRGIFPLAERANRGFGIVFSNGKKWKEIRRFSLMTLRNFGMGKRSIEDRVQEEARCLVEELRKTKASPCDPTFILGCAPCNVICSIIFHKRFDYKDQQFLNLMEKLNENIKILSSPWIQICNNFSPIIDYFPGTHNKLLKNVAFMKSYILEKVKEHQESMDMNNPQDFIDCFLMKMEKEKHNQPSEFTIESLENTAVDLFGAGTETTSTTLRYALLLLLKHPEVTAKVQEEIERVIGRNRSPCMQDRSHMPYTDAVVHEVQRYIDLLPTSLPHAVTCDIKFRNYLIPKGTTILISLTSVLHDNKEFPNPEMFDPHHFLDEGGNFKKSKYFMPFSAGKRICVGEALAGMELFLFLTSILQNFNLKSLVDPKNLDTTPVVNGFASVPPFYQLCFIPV
smiles,measurement,setting,value
CCOC(=O)Nc1ccc2c(c1)Nc1ccccc1S2,EC50,[1],< 0.1 µM (active)
same,IC50,NADPH oxidase 1 [2],0.915 µM (active)
same,IC50,NADPH oxidase 1 [3],0.054 µM (active)
same,EC50,[4],> 60 µM (not active)
same,IC50,[5],45 µM (active)
O=C(Nc1ccc(Br)nc1)c1ccc(F)c(F)c1,EC50,[6],3.72 µM (active)
Cc1cccc(/C=N/Nc2cc(N3CCOCC3)nc(N3CCOCC3)n2)c1,CC50,[7],24.6 µM (active)
same,IC50,[8],> 50 µM (not active)
same,EC50,[1],< 0.1 µM (active)
same,IC50,[9],0.692 µM (active)
same,EC50,[4],1.6 µM (active)
same,IC50,[10],> 50 µM (not active)
same,IC50,[11],1.88 µM (active)
same,EC50,cells,0.077 µM (active)
O=[N+]([O-])c1ccc2[nH]c(CCCc3nc4cc([N+](=O)[O-])ccc4[nH]3)nc2c1,IC50,SUMO-activating enzyme,> 100 µM (inactive)
same,IC50,[12],6.53 µM (active)
O=C(CCCCCn1c(=S)[nH]c2ccccc2c1=O)N1CCN(c2cccc(Cl)c2)CC1,IC50,Estrogen receptor,0.35 µM (not active)
COc1cccc(-c2nc(-c3ccc(NC(=O)Cc4ccccc4OC)cc3)no2)c1,IC50,[13],> 35 µM (not active)
same,IC50,[14],0.733 µM (active)
CC1CCCC(C)N1C(=C(Cl)Cl)C(=C1SCCS1)[N+](=O)[O-] (stereo not drawn),EC50,Mucolipin-3,6.91 µM (active)
same,EC50,Ion channel NompC,> 29.9 µM (not active)
same,AC50,[15],> 100 µM (inactive)
COc1cccc(C2C(C#N)=C(N)OC3=C2C(=O)CC(c2ccco2)C3)c1OCc1ccc(F)cc1 (stereo not drawn),EC50,[16],> 300 µM (not active)
same,EC50,[17],> 300 µM (not active)
same,IC50,NS3,33.5 µM (not active)
COc1ccc(C(CC(=O)c2ccc(C)cc2)Nc2ccc([N+](=O)[O-])cc2)cc1 (stereo not drawn),IC50,[18],> 50 µM (not active)
same,IC50,[19],2.05 µM (active)
same,IC50,[20],> 69.5 µM (inactive)
same,IC50,[21],26.8 µM (inactive)
COc1ccc(-c2nsc3c(N4CCCCC4)ncnc23)cc1,EC50,[22],4.6 µM (active)
same,EC50,HT-1080,> 50 µM (not active)
same,AC50,Cytochrome P450 2D6,15.8 µM (inconclusive)
same,AC50,Cytochrome P450 2C9,5.01 µM (inconclusive)
